Reference: patent US12397016B2, “Sulfated oligosaccharides having anti-inflammatory activity” (The University of North Carolina at Chapel Hill, priority 2017, dated 2025)
Entries after “also recorded” stand apart in the source; their conditions may differ.

System: APAP-induced liver injury in mice
Assay: Delayed treatment 6 h post-APAP, comparison with NAC
Assay type: in vivo, mouse
Details: read at 24 h, FIG. 5D
Description: To compare the 18-mer's effectiveness to N-acetyl cysteine (NAC), 300 mg kg^−1 NAC at pH 7.5 in sterile saline was injected intraperitoneal 30 min post-APAP. In a separate experiment, 300 mg kg^−1 NAC or 0.34 mg/kg 18-mer were administered 6 h post-APAP, then at 18 h post-APAP, 0.17 mg kg^−1 18-mer was administered to the 18-mer treated group. At 24 h post-APAP, mice were euthanized and blood and liver tissue were collected.
Plasma ALT was measured using the ALT Infinity reagent (Thermo Fisher Scientific) following the manufacturer's instructions. Plasma TNF-α was measured using Mouse TNF-α DuoSet Kit (R&D Systems, Minneapolis, Minnesota, United States of America) according to the manufacturer's instructions. Plasma HMGB1 levels were determined using HMGB1 ELISA Kit (Tecan US of Tecan Trading AG, Mannedorf, Switzerland) according to the manufacturer's instructions. Plasma syndecan-1 levels were determined using Mouse Syndecan-1 ELISA (CellSciences) according to manufacturer's instructions. Hepatic GSH levels were determined using Glutathione Assay Kit (Cayman Chemicals, Ann Arbor, Michigan, United States of America) according to the manufacturer's instructions.

SMILES: CC(=O)N[C@@H](CS)C(=O)O [NAC, N-acetyl-cysteine]
- protective effect (ALT) when administered six hours post-APAP: loses its protective effect; also recorded: loses effectiveness
